{
  "source": "patent US20230084354A1",
  "about": "“NUTRACEUTICAL EXTRACTS OF HIPPOPHAE RHAMNOIDES AND TERMINALIA CHEBULA AND USES THEREOF” (Biomics, LLC, priority 2020, published 2023)",
  "system": "Human peripheral blood mononuclear cell (PBMC) cultures",
  "experiment": "CD69 and CD25 expression in human PBMC cultures, direct effects",
  "format": "cell-based",
  "conditions": "direct effect, 24 hours, vs untreated control; extract at the highest dose",
  "protocol": "Next, the immune-modulating effects of the extract were tested. Human peripheral blood mononuclear cell (PBMC) cultures were used for this testing. A set of cultures were left untreated as negative control cultures for immune activation. Triplicate sets of cultures were treated with serial dilutions of the test product. The inflammatory bacterial lipopolysaccharide LPS from E. coli was used as a positive control for activation. The cultures were incubated for 24 hours, after which the cells and the culture supernatants were harvested and used to monitor the reactions in each culture. The cells were used for immunostaining and flow cytometry, specifically to evaluate the induction of two activation markers, CD69 and CD25, on NK cells, NKT cells, T lymphocytes, and monocytes/macrophages.",
  "data": [
    {"substance": "Poly I:C", "values": [
      {"measurement": "CD69 expression on NK cells", "value": "increase"}
    ]}
  ]
}
